Results as given in patent publication US20110218244A1, “CREATINE ß-ALANINATE: A NOVEL SALT FOR INCREASING […] PERFORMANCE” (priority 2009, published 2011).
Like-named read-outs stand apart in the source and are kept apart here.

Columns and labels:
individuals = settings: cited from earlier work
[1] = test system: intramuscular carnosine content; settings: after 10 week supplementation; cited from earlier work

Compound: NCCC(=O)N[C@@H](Cc1cnc[nH]1)C(=O)O [carnosine, β-alanyl-L-histidine]
- paraesthesia symptoms (individuals; greater quantities, ingested as dipeptides in meat): do not cause the same symptoms

Compound: NCCC(=O)O [β-alanine, 3-Aminopropanoic acid]
- increase in intramuscular carnosine content, average [1]: 80%
- amount above which ingestion causes paraesthesia (individuals; in solution or as powder in gelatin capsules): above 10 mg per kg body weight
- time at which paraesthesia begins after oral administration (individuals; oral): about 20 minutes

Compound: anserine
- paraesthesia symptoms (individuals; in vivo): do not cause the same symptoms

Compound: creatine β-alaninate
- more β-alanine administrable before eliciting symptoms of paraesthesia, compared with β-alanine alone (human subjects; administered as creatine β-alaninate): roughly 100%
- single dose administered before the onset of parasthesia was noted (human subjects; oral, gelatin capsules, human subjects): up to 55.00 mg/kg
- equivalent β-alanine dose before the onset of parasthesia (human subjects; salt mass consists of about 40.45% β-alanine): about 22.25 mg/kg
